US10197581B2, “Vitamin D assays” (Enzo Life Sciences, Inc., priority 2013, dated 2019)
Structures can show the parent of a compound that is named as a salt. Where two headings read alike, the source gives them in different places.

Tests used:
[1] = target: T1, vitamin D binding protein (DBP) (Homo sapiens, UniProt P02774); experiment: Screening of dissociation buffer components (release reagents) in the 25OHD ELISA; format: biochemical; conditions: for release of 25OHD from DBP and maintaining 25OHD availability for antibody binding / tolerance in the assay: component of dissociation buffer; for effect towards dissociation of 25OHD from DBP: earlier experiments
T1 sequence (P02774 17-474): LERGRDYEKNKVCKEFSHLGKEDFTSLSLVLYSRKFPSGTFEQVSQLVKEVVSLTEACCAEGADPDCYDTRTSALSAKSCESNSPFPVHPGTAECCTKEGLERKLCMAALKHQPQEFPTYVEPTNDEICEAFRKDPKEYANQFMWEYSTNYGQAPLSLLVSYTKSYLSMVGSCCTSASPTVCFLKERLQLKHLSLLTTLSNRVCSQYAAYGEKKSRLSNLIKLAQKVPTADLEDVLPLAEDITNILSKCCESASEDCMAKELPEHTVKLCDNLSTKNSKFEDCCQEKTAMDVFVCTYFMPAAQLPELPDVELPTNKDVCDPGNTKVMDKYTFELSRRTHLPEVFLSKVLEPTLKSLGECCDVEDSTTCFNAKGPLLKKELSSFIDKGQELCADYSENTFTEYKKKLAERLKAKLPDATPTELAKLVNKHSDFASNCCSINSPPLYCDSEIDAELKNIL
Protocol: In order to optimize the ELISA 25OHD assay, components of the dissociation buffer, the assay buffer and the wash buffer, and conditions for performing various steps in the protocol were tested in the assay. Various reagents were tested alone or in combination for their effects on dissociation of 25OHD from DBP.
In addition, various types and concentrations of buffer salts (e.g., Tris, MES, citrate) were used in the dissociation buffers, assay buffers and wash buffers. Dissociation and wash buffers having a pH from 4-8 were tested. Dissocation was performed at different temperatures (RT, 37° C., 65° C.) and in different incubation vessels (polypropylene or polystyrene) and the competitive ELISA was performed using various different 25OHD conjugates.

[2] = system: sheep monoclonal anti-25OHD antibody (Bioventix); experiment: Cross-reactivity of vitamin D metabolites in the optimized 25OHD competitive ELISA; format: binding; conditions: for % cross-reactivity: determined at the OD corresponding to the ED50 of 25OHD3; for ED50: optimized 25OHD ELISA, metabolite serially diluted in Tris buffer
Protocol: Ten vitamin D metabolites were tested for cross-reactivity in the optimized 25OHD ELISA assay described above. New concentrated stock solutions were prepared from dry chemicals for all metabolites. For cross-reactivity testing, each metabolite was prepared and serially diluted in a Tris buffer. Metabolites and the concentration ranges tested are in Table 3. The metabolite solutions were used as samples and mixed with dissociation buffer and the assay carried out as previously described.

[3] = format: physicochemical
[4] = target: T1, vitamin D binding protein (DBP); experiment: Release of bound 25OHD3 from DBP in serum samples at varied release reagent concentrations (ELISA); format: biochemical; parameters: human serum containing 20 or 40 ng/mL 25OHD3 were treated with the various dissociation buffers; from tissue; host or cells: human serum; conditions: major release reagents in combination
[5] = target: T1, vitamin D binding protein (DBP); experiment: as above; format: biochemical; parameters: from tissue; host or cells: human serum; conditions: for percent inhibition by released 25OHD: vs controls with no 25OHD
Protocol: Each buffer was diluted to provide dissociation buffers with multiple concentrations of a single release reagent.

Molecule | release of 25OHD from DBP and maintaining 25OHD availability for antibody binding [1] | % cross-reactivity [2] | ED50 [2] | also measured
C[C@H](CCC(=O)NCCC[N+](C)(C)CCCS(=O)(=O)[O-])[C@H]1CC[C@H]2[C@@H]3[C@H](O)C[C@@H]4C[C@H](O)CC[C@]4(C)[C@H]3C[C@H](O)[C@]12C [CHAPS] | did not aid in dissociating 25OHD from DBP |  |  | 
methyl β-cyclodextrin | effective and generally compatible with the assay |  |  | preventing 25OHD re-uptake by DBP or binding to other cellular proteins/lipids [1]: appeared to be effective; effect towards dissociation of 25OHD from DBP [1]: did not show a large effect
O=C(O)CN(CCN(CC(=O)O)CC(=O)O)CC(=O)O [EDTA] | did not aid in dissociating 25OHD from DBP |  |  | 
CO [methanol] | ineffective release reagents at concentrations that were tolerable in the assay |  |  | 
CCCCCCCCCCCC(=O)OCCOCCOCCOCCOCCOCCOCCOCCOCCOCCOCCOCCOCCOCCOCCOCCOCCOCCOCCOCCOCC(OCCOCCOCCOCCOCCOCCOCCOCCOCCOCCOCCOCCOCCOCCOCCOCCOCCOCCOCCOCCO)C1OCC(OCCOCCOCCOCCOCCOCCOCCOCCOCCOCCOCCOCCOCCOCCOCCOCCOCCOCCOCCOCCO)C1OCCOCCOCCOCCOCCOCCOCCOCCOCCOCCOCCOCCOCCOCCOCCOCCOCCOCCOCCOCCO (centres unmarked) [Tween-20, Polysorbate 20] | did not aid in dissociating 25OHD from DBP |  |  | 
CCCCCCCCCCCCCC[N+](C)(C)CCCS(=O)(=O)[O-] [Zwittergent 3-14] |  |  |  | tolerance in the assay [1]: not tolerated in the assay
C=C1CCC(O)C/C1=C\C=C1\CCCC2(C)C1CCC2C(C)CCC(O)C(C)(C)O (centres unmarked) [24,25(OH)2VitaminD3] |  | 1.25% | 0.14 µg/mL | detection by the anti-25OHD antibody ([2]; 25OHD assay): neither the parent vitamin compounds nor the 24,25(OH)2VitaminD3 metabolite was detected to any appreciable degree
O=C(O)CCP(CCC(=O)O)CCC(=O)O [TCEP] | did not aid in dissociating 25OHD from DBP |  |  | 
N=C(N)N [guanidine HCl] | did not aid in dissociating 25OHD from DBP |  |  | 
CCCC[n+]1ccc(C)cc1.F[B-](F)(F)F | effective and generally compatible with the assay |  |  | time after manufacture until dissociation buffer became unreliable [3]: ≤ 7 days; pH of the dissociation buffer ([3]; after 1.5 days): 4.7; pH of the dissociation buffer ([3]; after 4 days): 4.07; pH of the dissociation buffer ([3]; after 7 day): 3.46; pH of the dissociation buffer ([3]; after 8 days): 2.79; pH of the dissociation buffer ([3]; after 9 days): 2.43; pH of the dissociation buffer ([3]; freshly made): 5.2
C=C1/C(=C\C=C2/CCC[C@]3(C)[C@@H]([C@H](C)/C=C/[C@H](C)C(C)C)CC[C@@H]23)C[C@@H](O)C[C@@H]1O [1α(OH)VitaminD2] |  | <0.01% | 1.43 µg/mL | 
C=C1CC[C@H](O)C/C1=C/C=C1\CCC[C@]2(C)[C@@H]([C@H](C)/C=C/[C@H](C)C(C)(C)O)CC[C@@H]12 [25(OH)VitaminD2] |  | 87.94% | 0.00199 µg/mL | % cross-reactivity ([2]; listed as 25OHD2): 88%
1-butyl-3-methylimidazolium octylsulfate | effective and generally compatible with the assay |  |  | 
CCCCn1cc[n+](C)c1.F[B-](F)(F)F [1-butyl-3-methylimidazolium tetrafluoroborate] | effective and generally compatible with the assay |  |  | 
CCO [ethanol] | ineffective release reagents at concentrations that were tolerable in the assay |  |  | 
O=C([O-])c1ccccc1O.[Na+] [sodium salicylate] | effective and generally compatible with the assay |  |  | preventing 25OHD re-uptake by DBP or binding to other cellular proteins/lipids [1]: appeared to be effective; effect towards dissociation of 25OHD from DBP [1]: did not show a large effect

Molecule | release of 25OHD from DBP and maintaining 25OHD availability for antibody binding [1] | % cross-reactivity [2] | ED50 [2] | also measured
C=C1CC[C@H](O)C/C1=C/C=C1\CCC[C@]2(C)[C@@H]([C@H](C)CCCC(C)C)CC[C@@H]12 [Vitamin D3] |  | 0.01% | 23.5 µg/mL | 
CC(C)O [2-isopropanol] | ineffective release reagents at concentrations that were tolerable in the assay |  |  | 
Triton X-100 |  |  |  | tolerance in the assay [1]: not tolerated in the assay
C=C1/C(=C\C=C2/CCC[C@]3(C)[C@@H]([C@H](C)CCCC(C)C)CC[C@@H]23)C[C@@H](O)C[C@@H]1O [1α(OH)VitaminD3] |  | 0.04% | 4.03 µg/mL | 
C=C1CC[C@H](O)C/C1=C/C=C1\CCC[C@]2(C)[C@@H]([C@H](C)/C=C/[C@H](C)C(C)C)CC[C@@H]12 [Vitamin D2] |  | 0.11% | 1.643 µg/mL | 
CCCC[n+]1ccc(C)cc1.[Cl-] | effective and generally compatible with the assay |  |  | optimal concentration for dissociation buffer formulation [4]: about 10%; percent inhibition by released 25OHD ([5]; 20 ng/mL 25OHD3 serum sample, high end of 6-14% reagent range): 25%; percent inhibition by released 25OHD ([5]; 20 ng/mL 25OHD3 serum sample, low end of 6-14% reagent range): 12%; percent inhibition by released 25OHD ([5]; 40 ng/mL 25OHD3 serum sample, high end of 6-14% reagent range): 34%; percent inhibition by released 25OHD ([5]; 40 ng/mL 25OHD3 serum sample, low end of 6-14% reagent range): 16%; best percentage of individual release reagent (greatest gains in 25OHD release) ([5]; single release reagent in dissociation buffer): 14%; stability of dissociation buffer [3]: stable and could be stored at room temperature for weeks with no change in efficacy in the assay
casein |  |  |  | effect on absorbance signal and dynamic signal range ([1]; protein at or above 0.5% in the assay): negatively impacted absorbance signal and dynamic signal range
C=C1/C(=C\C=C2/CCC[C@]3(C)[C@@H]([C@H](C)CCCC(C)(C)O)CC[C@@H]23)C[C@@H](O)C[C@@H]1O [1,25(OH)2VitaminD3] |  | 27.9% | 0.00627 µg/mL | % cross-reactivity ([2]; listed as 1,25(OH)2D3): 28%
O[C@@H](CS)[C@@H](O)CS [DTT] | did not aid in dissociating 25OHD from DBP |  |  | 
CCCCC/C=C\C/C=C\C/C=C\C/C=C\CCCC(=O)O [Arachidonic acid, arachidonic acid] | did not aid in dissociating 25OHD from DBP |  |  | 
CC#N [Acetonitrile, acetonitrile] | ineffective release reagents at concentrations that were tolerable in the assay |  |  | 
NP-40 |  |  |  | tolerance in the assay [1]: not tolerated in the assay
C=C1/C(=C\C=C2/CCC[C@]3(C)[C@@H]([C@H](C)/C=C/[C@H](C)C(C)(C)O)CC[C@@H]23)C[C@@H](O)C[C@@H]1O [1,25(OH)2VitaminD2] |  | 94.1% | 0.00186 µg/mL | % cross-reactivity ([2]; listed as 1,25(OH)2D2): 94%
CCCCCCCCCCCCOS(=O)(=O)[O-].[Na+] [SDS, sodium dodecyl sulfate] | did not aid in dissociating 25OHD from DBP |  |  | 
C=C1CC[C@H](O)C/C1=C/C=C1\CCC[C@]2(C)[C@@H]([C@H](C)CCCC(C)(C)O)CC[C@@H]12 [25(OH)VitaminD3] |  | 100% | 0.00175 µg/mL | 
C=C1CC[C@@H](O)C/C1=C/C=C1\CCC[C@]2(C)[C@@H]([C@H](C)CCCC(C)(C)O)CC[C@@H]12 [3-epi-25(OH)VitaminD3] |  | 50.87% | 0.00344 µg/mL | % cross-reactivity ([2]; listed as 3-epimer of 25(OH)VitaminD3): 51%
